The values that follow are results of earlier work, collected in PMC8917853, “Synthesis and evaluation of ^99mTc-DOTA-ARA-290 as potential SPECT tracer for targeting cardiac ischemic region” (Iranian Journal of Basic Medical Sciences, 2021).

Where two headings read alike, the source gives them in different places. Non-standard residues stand in square brackets, D forms with d. pGlu = O=C1CC[C@@H](C(=O)O)N1

The conditions of data set [1]: cited from earlier work. An excerpt:
Myocardial infarction, the most prominent cardiovascular disease outcome (CVD), is the main reason for morbidity and death in the world ([1]). Immediate and precise diagnosis of cardiac hypoxia and ischemia is very critical and crucial for appropriate treatment and prevention of myocardial damage ([2]). Evaluation of cardiac ischemic biomarkers in blood plasma, including Creatine Kinase-MB, cardiac troponin, and lactate dehydrogenase (LDH) is valuable for diagnosis; however, their levels increase in blood after a delay of time ([3]).

The conditions of data set [2]: metabolic stability; 41 (Yang et al.); cited from earlier work. An excerpt:
Myocardial SPECT imaging as a nuclear cardiological scan has been used in many procedures for ischemic heart diseases ([36]). In the mid-1970s, […]-201 (201TI) imaging has been used to ascertain regional myocardial perfusion models at rest, stress, and acute myocardial infarction, but because of the concerns about medical exposure to ionizing radiation and lower image quality, ^201Tl was substituted by ^99mTc-labeled perfusion agents (^99mTc-sestamibi and ^99mTc-tetrofosmin). However, these SPECT agents show poor pharmacokinetic features with reducing uptake with higher flows ([37], [38]) ...

As for “[pGlu]EQLERALNSS-OH [ARA-290, 11 amino acid nonhematopoietic peptide derived from helix B of EPO]”, the half-life entry in data set [1] (in rabbits) and in data set [1] (in rats) was “roughly 2 min” each time. For the same substance, in data set [2], the in vivo stability is given as 2 min.
